Assay results as given in US6344471B1 (priority 1998, dated 2002).
pIC50, pKi: −log10 of the molar value.

How the values were obtained:
[1] = molecular target: high-affinity DFP binding site; parameters: species or system rat
acetylcholinesterase = acetylcholinesterase (Rattus norvegicus, UniProt P37136); assay: biochemical
[2] = system: rats having a lesion of the entorhinal cortex; details: rat, in vivo, ip
young adult rats = details: rat, in vivo; cited from earlier work

acetylcholinesterase, sequence (P37136 32-614): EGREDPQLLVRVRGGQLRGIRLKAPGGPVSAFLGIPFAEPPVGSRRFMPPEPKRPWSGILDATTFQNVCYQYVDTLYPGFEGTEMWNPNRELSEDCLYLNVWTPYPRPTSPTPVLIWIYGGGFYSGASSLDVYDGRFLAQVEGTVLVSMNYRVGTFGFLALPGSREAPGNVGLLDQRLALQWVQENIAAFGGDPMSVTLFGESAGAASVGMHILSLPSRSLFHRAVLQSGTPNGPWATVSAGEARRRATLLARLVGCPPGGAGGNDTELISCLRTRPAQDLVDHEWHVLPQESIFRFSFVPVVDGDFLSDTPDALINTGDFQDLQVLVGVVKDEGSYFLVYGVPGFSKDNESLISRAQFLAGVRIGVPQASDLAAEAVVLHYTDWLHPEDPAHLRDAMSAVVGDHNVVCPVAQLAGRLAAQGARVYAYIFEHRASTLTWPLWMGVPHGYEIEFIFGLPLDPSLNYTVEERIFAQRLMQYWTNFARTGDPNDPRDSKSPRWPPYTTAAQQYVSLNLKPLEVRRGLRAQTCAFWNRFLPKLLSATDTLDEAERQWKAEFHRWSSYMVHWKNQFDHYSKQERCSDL

## CCCc1c(CC)c(=O)on1C(=O)N1CCCC1 [Example 1, 4-Ethyl-3-propyl-2-(1-pyrrolidinylcarbonyl)-5(2H)-isoxazolone]
[1]; read-out: IC50, inhibition of binding of [3H]DFP to the high-affinity binding site
  pIC50: 8.32
acetylcholinesterase
  pKi: < 5.00
  selectivity (DFP binding site vs acetylcholinesterase): > 2000
[2]
  antagonism of the learning weakness induced by lesion of the entorhinal cortex: not capable of antagonizing the learning weakness
  learning of the platform position: sped up learning of the platform position considerably
  performance level on the second day of training: same performance level as the vehicle-treated animals after 5 days of training

## COP(=O)(OC)OC=C(Cl)Cl [dichlorvos, reference compound]
[1]
  binding/affinity to the high-affinity DFP binding site ([3H]DFP competition in vitro): binds

## Nc1c2c(nc3ccccc13)CCCC2 [tacrine]
Young adult rats
  improvement of cognitive learning ability: no improvement
